Reference: paper PMC3631439 (ACS chemical biology, 2013)
Entries after “also recorded” stand apart in the source; their conditions may differ. Like-named read-outs stand apart in the source and are kept apart here.

Tests used:
Mouse PKC α = Mouse PKC α (Mus musculus, UniProt P20444); experiment: biochemical; format: binding
PKCδ = PKCδ (Homo sapiens, UniProt Q05655); experiment: Down regulation of PKCδ in U937 cells; format: cell-based
[1] = system: LNCaP human prostate cancer cells; experiment: Proliferation of LNCaP cells; conditions: for inhibition of proliferation of LNCaP cells: 36 h; for block of inhibition of proliferation by PMA: PMA 30 nM co-administered
mouse GFP-PKCδ = mouse GFP-PKCδ (Mus musculus, UniProt P28867); experiment: Translocation of mouse GFP-PKCδ in LNCaP cells; format: cell-based; conditions: 1000 nM PMA, 1000 nM bryostatin 1, 3000 nM bryostatin 7
mouse GFP-PKCδ, sequence (P28867 whole entry): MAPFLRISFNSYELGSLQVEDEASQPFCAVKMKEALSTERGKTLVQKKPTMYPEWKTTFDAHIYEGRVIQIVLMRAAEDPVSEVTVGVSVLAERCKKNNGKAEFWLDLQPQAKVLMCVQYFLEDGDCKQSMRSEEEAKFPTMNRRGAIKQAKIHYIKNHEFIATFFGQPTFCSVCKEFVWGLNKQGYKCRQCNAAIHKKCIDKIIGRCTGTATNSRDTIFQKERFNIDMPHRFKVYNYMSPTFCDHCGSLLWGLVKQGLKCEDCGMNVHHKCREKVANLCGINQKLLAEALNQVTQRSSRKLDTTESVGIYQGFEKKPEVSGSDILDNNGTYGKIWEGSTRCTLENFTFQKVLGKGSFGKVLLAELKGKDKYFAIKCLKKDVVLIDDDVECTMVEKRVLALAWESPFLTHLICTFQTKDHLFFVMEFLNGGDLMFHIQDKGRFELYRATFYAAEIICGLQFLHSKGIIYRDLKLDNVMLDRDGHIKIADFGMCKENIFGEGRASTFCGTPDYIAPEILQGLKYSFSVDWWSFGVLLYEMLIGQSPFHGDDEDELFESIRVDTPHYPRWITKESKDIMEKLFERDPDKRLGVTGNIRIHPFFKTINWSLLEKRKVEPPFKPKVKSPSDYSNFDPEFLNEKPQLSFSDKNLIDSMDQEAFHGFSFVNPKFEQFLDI

U937 leukemia cells [2] = format: cell-based, human; conditions: 60 hours; for suppression of growth inhibition induced by PMA: co-administered with PMA
U937 leukemia cells [3] = format: cell-based, human; conditions: 60 hours; for cell attachment: U937 cells; for inhibition of attachment induced by PMA: co-administered with PMA
[4] = system: TNFα secretion in LNCaP cells; experiment: TNFα secretion by LNCaP cells; conditions: for inhibition of secretion of TNFα induced by PMA: 30 nM PMA; for secretion of TNFα: 24 h
[5] = system: phorbol ester responsive genes in LNCaP cells; experiment: Gene induction in LNCaP cells; format: cell-based, human; conditions: 6 hours, 1000 nM
human GFP-PKCα = human GFP-PKCα (Homo sapiens, UniProt P17252); experiment: Translocation of human GFP-PKCα in CHO cells; format: cell-based
PKCβII = PKCβII (Homo sapiens, UniProt P05771); experiment: Down regulation of PKCβII in U937 cells; format: cell-based
PKCβII, sequence (P05771 1-673 isoform P05771-2): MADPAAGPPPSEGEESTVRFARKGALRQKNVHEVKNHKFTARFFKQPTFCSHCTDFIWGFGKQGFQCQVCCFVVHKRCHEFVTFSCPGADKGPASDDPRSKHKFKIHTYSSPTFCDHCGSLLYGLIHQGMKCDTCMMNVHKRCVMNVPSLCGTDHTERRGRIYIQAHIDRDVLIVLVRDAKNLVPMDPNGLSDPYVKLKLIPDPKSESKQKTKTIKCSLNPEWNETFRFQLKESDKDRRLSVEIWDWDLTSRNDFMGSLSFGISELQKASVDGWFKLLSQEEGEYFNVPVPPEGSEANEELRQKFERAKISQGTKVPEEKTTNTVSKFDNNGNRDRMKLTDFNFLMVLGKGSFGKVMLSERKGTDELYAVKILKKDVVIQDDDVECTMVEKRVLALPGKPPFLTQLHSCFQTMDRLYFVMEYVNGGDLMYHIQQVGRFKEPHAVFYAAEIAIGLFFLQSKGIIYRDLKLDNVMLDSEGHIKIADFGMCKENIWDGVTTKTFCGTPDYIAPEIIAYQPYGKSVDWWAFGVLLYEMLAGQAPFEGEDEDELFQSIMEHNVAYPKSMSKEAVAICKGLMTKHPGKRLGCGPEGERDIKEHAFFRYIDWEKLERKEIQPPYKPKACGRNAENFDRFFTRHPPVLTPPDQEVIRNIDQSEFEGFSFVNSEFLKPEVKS

PKCε = molecular target: T1, PKCε (Homo sapiens, UniProt Q02156); experiment: Down regulation of PKCε in U937 cells; format: cell-based; conditions: data not shown
T1 sequence (Q02156 1-737): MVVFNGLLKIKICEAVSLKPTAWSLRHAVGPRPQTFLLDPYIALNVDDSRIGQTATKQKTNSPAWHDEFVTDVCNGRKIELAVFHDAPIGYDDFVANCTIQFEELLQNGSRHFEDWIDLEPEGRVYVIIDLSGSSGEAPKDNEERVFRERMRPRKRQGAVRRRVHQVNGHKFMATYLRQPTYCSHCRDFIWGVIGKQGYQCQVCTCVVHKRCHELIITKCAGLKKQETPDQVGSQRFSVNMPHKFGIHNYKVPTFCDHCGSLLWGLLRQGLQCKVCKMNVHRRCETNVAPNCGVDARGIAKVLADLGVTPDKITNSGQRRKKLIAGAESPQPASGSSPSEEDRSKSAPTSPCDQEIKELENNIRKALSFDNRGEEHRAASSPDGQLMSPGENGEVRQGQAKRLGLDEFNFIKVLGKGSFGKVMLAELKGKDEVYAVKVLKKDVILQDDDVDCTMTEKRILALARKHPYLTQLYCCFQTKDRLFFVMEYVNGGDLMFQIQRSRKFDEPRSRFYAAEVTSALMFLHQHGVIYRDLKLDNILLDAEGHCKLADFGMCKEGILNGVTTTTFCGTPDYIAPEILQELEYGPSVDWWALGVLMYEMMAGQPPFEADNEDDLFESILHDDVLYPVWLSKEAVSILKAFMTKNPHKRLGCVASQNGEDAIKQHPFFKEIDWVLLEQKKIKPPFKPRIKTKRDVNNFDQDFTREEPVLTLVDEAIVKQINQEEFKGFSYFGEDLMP

human GFP-PKCδ = human GFP-PKCδ (Homo sapiens, UniProt Q05655); experiment: Translocation of human GFP-PKCδ in LNCaP cells; format: cell-based; conditions: 1000 nM PMA, 1000 nM bryostatin 1, 3000 nM bryostatin 7
human GFP-PKCδ, sequence (Q05655 whole entry): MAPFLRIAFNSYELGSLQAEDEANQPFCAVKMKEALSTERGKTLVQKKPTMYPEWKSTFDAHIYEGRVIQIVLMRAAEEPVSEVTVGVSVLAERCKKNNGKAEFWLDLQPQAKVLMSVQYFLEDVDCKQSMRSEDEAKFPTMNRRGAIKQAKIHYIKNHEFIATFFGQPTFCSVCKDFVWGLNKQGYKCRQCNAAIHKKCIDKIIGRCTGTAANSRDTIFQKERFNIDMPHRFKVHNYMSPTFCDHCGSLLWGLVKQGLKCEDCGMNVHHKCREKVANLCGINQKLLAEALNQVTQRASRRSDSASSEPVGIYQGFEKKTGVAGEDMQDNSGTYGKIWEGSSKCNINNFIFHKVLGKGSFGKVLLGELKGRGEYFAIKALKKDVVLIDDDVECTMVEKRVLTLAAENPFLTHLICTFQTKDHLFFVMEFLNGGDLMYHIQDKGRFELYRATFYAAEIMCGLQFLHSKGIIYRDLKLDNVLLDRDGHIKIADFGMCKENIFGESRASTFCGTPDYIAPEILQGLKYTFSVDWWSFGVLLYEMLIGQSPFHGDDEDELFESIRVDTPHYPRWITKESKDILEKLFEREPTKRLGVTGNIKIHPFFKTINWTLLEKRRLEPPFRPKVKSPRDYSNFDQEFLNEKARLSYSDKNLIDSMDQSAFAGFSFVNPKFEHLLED

U937 cells = format: cell-based, human; conditions: araC 1 μM, 24 h; bryostatin 1 100 nM, bryostatin 7 1000 nM
[6] = system: PKC signaling in LNCaP cells; experiment: PKC and downstream signaling in LNCaP cells; format: cell-based, human; conditions: 60 min
human YFP-PKCε = molecular target: T2, human YFP-PKCε (Homo sapiens, UniProt Q02156); experiment: Translocation of human YFP-PKCε in LNCaP cells; format: cell-based
T2 sequence (Q02156 1-737): T1 sequence (Q02156 1-737)

human platelets = conditions: cited from earlier work
[7] = system: PKC isoforms and PKD1 in LNCaP cells; experiment: Subcellular fractionation of LNCaP cells; format: cell-based, human; conditions: 60 min
[8] = system: human PKC isoforms α, βII, δ, and ε
PKC = conditions: cited from earlier work
tumor promotion = conditions: cited from earlier work
[9] = system: TNFα secretion in U937 cells; experiment: TNF-alpha secretion by U937 cells; format: cell-based, human
[10] = read-out: EC50 for down regulation of PKCβII, 24 hours

PKCδ, sequence (Q05655 whole entry): as above

## CCC/C=C/C=C/C(=O)O[C@H]1/C(=C/C(=O)OC)C[C@H]2C[C@H]([C@@H](C)O)OC(=O)C[C@H](O)C[C@@H]3C[C@H](OC(C)=O)C(C)(C)[C@](O)(C[C@@H]4C/C(=C/C(=O)OC)C[C@H](/C=C/C(C)(C)[C@]1(O)O2)O4)O3 [Bryostatin 1, bryostatin 1]
Mouse PKC α
  Ki: 0.48 ± 0.03 nM
PKCδ; 24 hours
  down regulation of PKCδ: down regulation with a biphasic dose response curve
[1]
  inhibition of proliferation of LNCaP cells: little inhibitory effect
  block of inhibition of proliferation by PMA: prevents the inhibition by PMA
Mouse GFP-PKCδ
  translocation pattern of mouse GFP-PKCδ: only to the nuclear membrane and internal membranes
U937 leukemia cells [2]
  inhibition of U937 cell proliferation: very limited, biphasic inhibition
  suppression of growth inhibition induced by PMA: able to suppress the growth inhibition induced by PMA
U937 leukemia cells [3]
  cell attachment: much reduced level of cell attachment compared to that induced by PMA
  inhibition of attachment induced by PMA: able to inhibit the attachment induced by PMA
[4]
  inhibition of secretion of TNFα induced by PMA: inhibits the secretion of TNFα induced by PMA
  secretion of TNFα: minimal secretion of TNFα
[5]
  changes in levels of mRNA expression: generally similar for bryostatin 1 and bryostatin 7 and less than they were for PMA
Human GFP-PKCα; CHO cells, 1000 nM
  translocation pattern of human GFP-PKCα: some translocation of the human PKCα to the plasma membrane but with most forming a thick ring around the nucleus
PKCβII; [10]
  DC50: 0.31 ± 0.005 nM
PKCε
  down regulation of PKCε: little down regulation
Human GFP-PKCδ
  translocation pattern of human GFP-PKCδ: some initial plasma membrane translocation
U937 cells
  synergy with araC for loss of mitochondrial membrane potential: able to synergize with araC
[6]
  PKCδ phosphorylation on Y311: inability to induce efficient PKCδ phosphorylation on Y311
  induction of PKCδ phosphorylation at S299: closely similar
Human YFP-PKCε; LNCaP cells, 1000 nM
  translocation pattern of human YFP-PKCε: resembled that with PMA, albeit less extensive

## COC(=O)/C=C1/C[C@H]2C[C@]3(O)O[C@H](C[C@@H](O)CC(=O)O[C@@H]([C@@H](C)O)C[C@@H]4C/C(=C\C(=O)OC)[C@H](OC(C)=O)[C@@](O)(O4)C(C)(C)/C=C/[C@@H](C1)O2)C[C@H](OC(C)=O)C3(C)C [Bryostatin 7, bryostatin 7]
Mouse PKC α
  Ki: 0.26 ± 0.06 nM
Human platelets
  aggregation of human platelets: mimics the activity of the phorbol ester PMA in inducing aggregation of human platelets
PKCδ; 24 hours
  down regulation of PKCδ: resembled bryostatin 1
  potency for PKCδ down regulation, fold weaker than bryostatin 1: approximately 3 fold
PKCδ; read-out: EC50 for down regulation of PKCδ, 24 hours
  EC50: 0.22 ± 0.03 nM
[1]
  inhibition of proliferation of LNCaP cells: fails to inhibit proliferation
  block of inhibition of proliferation by PMA: able to block the inhibition of proliferation by PMA
Mouse GFP-PKCδ
  translocation pattern of mouse GFP-PKCδ: only to the nuclear membrane and internal membranes
U937 leukemia cells [2]
  inhibition of U937 cell proliferation: very limited, biphasic inhibition; also recorded: inhibited proliferation slightly more than did bryostatin 1
  suppression of growth inhibition induced by PMA: able to suppress the growth inhibition induced by PMA
U937 leukemia cells [3]
  cell attachment: much reduced level of cell attachment compared to that induced by PMA; also recorded: induced slightly more attachment than did bryostatin 1
  inhibition of attachment induced by PMA: able to inhibit the attachment induced by PMA
[7]
  PKCδ in the nuclear enriched fraction: resembled bryostatin 1 for this response
  pPKD1 in the nuclear fraction: behaved similarly to bryostatin 1
[4]
  inhibition of secretion of TNFα induced by PMA: inhibits the secretion of TNFα induced by PMA
  secretion of TNFα: minimal secretion of TNFα
[8]
  selectivity among PKC isoforms: little selectivity among these PKC isoforms
[5]
  changes in levels of mRNA expression: generally similar for bryostatin 1 and bryostatin 7 and less than they were for PMA
PKC
  binding affinity towards PKC among bryostatins: highest binding affinity towards PKC
Human GFP-PKCα
  translocation pattern of human GFP-PKCα: pattern of translocation similar to that of bryostatin 1
PKCβII; 24 hours
  potency for PKCβII down regulation, fold weaker than bryostatin 1: 3 fold
PKCβII; [10]
  EC50: 0.97 ± 0.08 nM
Human GFP-PKCδ
  translocation pattern of human GFP-PKCδ: only caused translocation of the human GFP-PKCδ to nuclear and internal membranes
U937 cells
  synergy with araC for loss of mitochondrial membrane potential: able to synergize with araC
[6]
  PKCδ phosphorylation on Y311: inability to induce efficient PKCδ phosphorylation on Y311
  induction of PKCδ phosphorylation at S299: closely similar
  induction of cFos or EGR1: reduced induction of cFos or EGR1 at 60 min compared to bryostatin 1
  phosphorylation of PKD1: somewhat less phosphorylation of PKD1 than did bryostatin 1
Human YFP-PKCε
  translocation pattern of human YFP-PKCε: no plasma membrane translocation

## CCCCCCCCCCCCCC(=O)O[C@@H]1[C@@H](C)[C@@]2(O)[C@@H](C=C(CO)C[C@]3(O)C(=O)C(C)=C[C@@H]23)[C@@H]2C(C)(C)[C@]12OC(C)=O [PMA]
PKCδ; 24 hours
  down regulation of PKCδ: little down regulation
[1]
  inhibition of proliferation of LNCaP cells: inhibits cellular proliferation
Mouse GFP-PKCδ
  translocation pattern of mouse GFP-PKCδ: initial translocation to the plasma membrane
Tumor promotion
  tumor promoting activity: tumor promoter
[7]
  PKCδ in the nuclear enriched fraction: increase in PKCδ in the nuclear enriched fraction
  pPKD1 in the nuclear fraction: substantial accumulation in the nuclear fraction
Human GFP-PKCα; CHO cells, 1000 nM
  translocation pattern of human GFP-PKCα: slow but clear plasma membrane translocation
PKCβII; 24 hours
  level of down regulation of PKCβII: less down regulation
PKCε
  down regulation of PKCε: little down regulation
Human YFP-PKCε; LNCaP cells, 1000 nM
  translocation pattern of human YFP-PKCε: rapid clearing of the cytoplasm with translocation of PKCε to the plasma membrane
[9]
  TNFα secretion: higher level of secretion

## CC(C)[C@H]1C(=O)N[C@H](CO)Cc2c[nH]c3cccc(c23)N1C [indolactam V]
Tumor promotion
  tumor promoting activity: tumor promoters

## CC(=O)O[C@@]12C[C@@H](C)[C@@]3(O)[C@@H](C=C(CO)C[C@]4(O)C(=O)C(C)=C[C@@H]34)[C@@H]1C2(C)C [prostratin]
Tumor promotion
  tumor promoting activity: inhibits tumor promotion
